Results: US20230028539A1, “PHARMACEUTICAL COMPOSITION, COMPLEMENTARY KIT AND APPLICATION THEREOF” (SHANGHAI PHARMACEUTICALS HOLDING CO., LTD., priority 2019, published 2023)
Read-outs that look alike come from different tables or passages of the source.

Legend:
[1] = system: 6-OHDA-induced unilateral damage PD model; assay: Apomorphine-induced contralateral circling test in 6-OHDA-induced rat Parkinson's disease model; format: in vivo, male Wistar rat; conditions: after 29 days of treatment, FIG. 3
Experimental: 3.1.2 The animals were injected intraperitoneally with APO (0.5 mg/kg, 2 mL/kg) 3 minutes before testing.
3.1.3 The animals were placed in a circular test box after dosing. Changes in animal behavior were observed and recorded by Ethovi si on video software, and the number of revolutions of each animal within 30 min was counted manually.
3.1.4 APO-induced circling behavior: The animal circled rightwards with the left hind limb as the fulcrum. One turn was counted as one revolution by taking the head of the rat as a reference. Animals with more than 180 revolutions within 30 min were qualified rat Parkinson's disease models.
3.2.1 140 animals were randomly selected, and intramuscularly injected with Zoletil at 30 mg/kg in combination with 3 mg/kg of xylazine hydrochloride for general anesthesia before the operation.
3.2.7 The injection of 6-OHDA was started 2 min after the needle reached the designated depth. […]
3.3.3 The animals were placed in a circular test box after dosing. Changes in animal behavior were observed and recorded by Ethovision video software, and the number of revolutions of each animal within 30 min was counted manually.
3.3.4 APO-induced circling behavior: The animal circled rightwards with the left hind limb as the fulcrum. One turn was counted as one revolution by taking the head of the rat as a reference. […]

[2] = system: MPTP-induced mouse Parkinson's disease model; assay: MPTP-induced mouse Parkinson's disease model, dopamine content in dorsal striatum by LC-MS; format: in vivo, male C57BL/6J mice
Experimental: Animals in control group were injected with an equal volume of […]. After 6 weeks, mice were euthanized and the dorsal striatum was separated after normal saline perfusion, weighed and preserved in a −80° C. freezer. The content of dopamine in dorsal striatal was determined by LC-MS. [table]

MAO-B = target: T1, MAO-B (Homo sapiens, UniProt P27338); conditions: cited from earlier work; for inhibitory strength to MAO-B than that to MAO-A: selectivity MAO-B over MAO-A
T1 sequence (P27338 1-520): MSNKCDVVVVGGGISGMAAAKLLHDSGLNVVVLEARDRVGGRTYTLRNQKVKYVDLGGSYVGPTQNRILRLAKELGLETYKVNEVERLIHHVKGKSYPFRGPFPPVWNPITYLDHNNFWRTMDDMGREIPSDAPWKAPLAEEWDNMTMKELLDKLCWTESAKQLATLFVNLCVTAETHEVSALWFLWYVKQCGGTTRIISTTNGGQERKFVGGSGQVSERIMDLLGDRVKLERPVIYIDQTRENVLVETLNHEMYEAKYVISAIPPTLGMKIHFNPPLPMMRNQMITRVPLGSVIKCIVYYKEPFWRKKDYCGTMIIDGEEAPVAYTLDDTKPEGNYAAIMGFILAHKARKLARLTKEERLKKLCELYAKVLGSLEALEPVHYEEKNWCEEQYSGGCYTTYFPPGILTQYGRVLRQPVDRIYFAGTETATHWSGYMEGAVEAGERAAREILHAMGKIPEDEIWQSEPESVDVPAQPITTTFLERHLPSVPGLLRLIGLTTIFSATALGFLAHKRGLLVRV

patients with early PD = conditions: 24 weeks, cited from earlier work

CCCN[C@H]1CCc2nc(N)sc2C1 [Compound A, Pramipexole]
reduction in the number of revolutions compared with that before treatment ([1]; G4, PPX 0.1 mpk P.O. QD): 24%

C[C@H](NCc1ccc(OCc2cccc(F)c2)cc1)C(N)=O [Compound B, Safinamide]
effect on dopamine reduction in the MPTP model (FIG. 1) ([2]; average dopamine concentration in mouse brain, all dose groups): improvement effects
dopamine levels in dorsal striatum compared with modeling group G2 ([2]; compound B group (15 mg/kg i.p. QD 6 weeks)): significantly higher
elevation in the number of revolutions compared with that before treatment ([1]; G3, SAF 15 mpk P.O. QD): 5%
time after discontinuation until physiological function completely restored (MAO-B; after discontinuation): 8 h
reversibility of MAO-B inhibition (MAO-B): reversible
inhibitory strength to MAO-B than that to MAO-A (MAO-B): 5000 fold
improvement of movement symptoms (total UPDRS score, LPDRS [sic]) (patients with early PD; safinamide 100 mg/d in combination with DA receptor agonist): effective
improvement of movement symptoms (total UPDRS score, LPDRS [sic]) (patients with early PD; safinamide 200 mg/d in combination with DA receptor agonist): no effect in improving movement symptoms

C#CCN[C@@H]1CCc2ccccc21 [rasagiline]
reversibility of MAO-B inhibition (MAO-B): irreversible
inhibitory strength to MAO-B than that to MAO-A (MAO-B): 103 fold
